# Laboratory results: US20210352950A1 (priority 2019, published 2021)
# Entries after “also recorded” stand apart in the source; their conditions may differ.
# Tests used:
# [1] = test system: HCT116 cells; experiment: Muse cell viability assay (percentage of dead cells); settings: for effect on STS + vitamin C cytotoxicity: HCT116, STS medium supplemented with transferrin, vitamin C 350 μM
# [2] = test system: KRAS mutant CRC cells (HCT116, DLD1, CT26.WT); settings: for effect on cell death induction by STS and vitamin C cotreatment: STS condition, GSH 5 mM or NAC 5 mM co-treated with vitamin C 350 μM, 24 hours
# [3] = test system: ROS in HCT116 cells; experiment: CellROX reactive oxygen species measurement; assay type: cell-based, human; settings: HCT116, GSH one hour prior to vitamin C 1 mM
# Procedure: Intracellular reactive-oxygen species (ROS) were measured using the CellROX oxidative stress reagents (Life Technologies, Cat. #: 10422). CellROX fluorogenic probe is designed to measure reactive-oxygen species (ROS) in live cells. […] For ROS measurement, cells were seeded in 10 cm petri dish (4×10^5 cells in CTR medium). After 24 hours cells were rinsed twice in 1×PBS and CTR or STS medium was added. 24 hours later, cells were trypsinized, resuspended in their respective media, and treated with 1 mM sodium ascorbate and 1 μM CellROX deep red reagent in the dark, for 30 minutes at 37° C. and 5% CO2. Then, fluorescence was immediately analyzed by flow cytometry (Attune NxT flow cytometer). Data were processed by Kaluza analysis software (Beckman coulter, version 2.0). Data were expressed as fold change of the median fluorescent intensity (MFI) of each treated sample versus the MFI of control sample.
# [4] = test system: HCT116 cells; experiment: Erythrosin B exclusion assay; assay type: cell-based, human; settings: HCT116, 24 hours-STS before and during oxaliplatin 40 μM 24 hours
# Procedure: Erythrosin B is a vital dye that is impermeable to biological membranes, thus staining only unviable cells with disintegrated membranes (Kim et al., 2016).
# The next day, cells were rinsed twice in 1×PBS and CTR or STS medium was added. […] Cell death was measured by erythrosine B exclusion assay. Cell suspension was diluted 1:1 with erythrosin B 0.1% in PBS (Sigma-Aldrich, Cat. #: 200964), then cells were counted in a Bürker chamber, and percentage of cell death was calculated as the number of Erythrosin B-positive cells with respect to the total number of cells.
# [5] = test system: HCT116 cells; experiment: MTT assay; assay type: cell-based, human; settings: HCT116, 24 hours-STS before and during oxaliplatin 40 μM 24 hours
# Excerpt: The MTT [3-(4,5-Dimethylthiazol-2-yl)-2,5-diphenyltetrazolium bromide] assay is a quantitative colorimetric assay used to determine cell viability (Mosmann, 1983). MTT is characterized by a yellow colour, and upon its reduction to formazan by mitochondrial dehydrogenases, turns into a purple molecule, which has an absorbance peak at 570 nm. The absorbance is proportional to the amount of formazan produced, thus giving a measure of living cells, since the reaction only occur in living and metabolically active cells (Mosmann, 1983).
# To evaluate viability, cells were seeded into a 96-well plate (2000 cells per well) in CTR medium. 24 hours later, cells were rinsed twice in 1×PBS, and CTR or STS medium was added. […] At the end of the experiment, medium was removed and cells were incubated with 100 μl of MTT (Sigma-Aldrich, Cat. #: M2128) solution (0.5 mg/ml, dissolved in medium) per well, for 3 hours at 37° C. in the dark. Next, 100 μl of lysis buffer (10% SDS, HCl 0.01M) were added to each well to dissolve formazan crystals and plates were incubated overnight at 37° C. Absorbance was recorded at the wavelength of 570 nm using a microplate reader (Infinite M200 TECAN). The absorbance values of media background were subtracted from the absorbance of each sample. No-treated samples were used as reference values (100% survival) to normalize the absorbance of treated samples.
# [6] = test system: HO-1; experiment: HO-1 expression in HCT116 (qPCR, western blot); assay type: cell-based, human; settings: HCT116, CTR and STS, hemin 20 μM 12 hours
# Procedure: Cells were washed twice in ice-cold PBS and lysates were prepared in RIPA lysis buffer (50 mM Tris HCl pH 7.4, 150 mM NaCl, 1% NP-40, 0.25% deoxycholic acid, 1 mM EDTA) supplemented with protease and phosphatase inhibitors (protease inhibitor cocktail set III EDTA-free, Calbiochem, Cat. #: S39134; PhosStop, Roche), Samples were sonicated (bioruptor plus, diogenode) and centrifuged at 16.1 g for 30 minutes at 4° C. Tumor tissues were collected and snap frozen in liquid nitrogen immediately after mice were sacrificed, and stored in -80° C. until use. […] Protein concentrations were determined by BCA assay (Thermo Fisher Scientific, Cat. #: 23225). Proteins were diluted in 1× Laemmli sample buffer, boiled at 95° C. for 5 minutes and 30 μg of total proteins were separated by using SDS-PAGE and analyzed by western blotting by standard procedures. […] Membranes were incubated overnight at 4° C. with gentle shaking with the following primary antibodies: […] ADI-SPA894), FTH (1:1000, Cell Signaling, Cat. #: 3998), AMPK (1:1000, Cell Signaling, Cat. #: 2532), phospho-[…] […] Bands intensity was quantified with NIH Image J software (version 1.48v). […] Resulting cDNA (1/20 v/v) was analyzed by real-time polymerase reaction (qRT-PCR) using TaqMan MBG probes with FAM reporter dyes. […]
# [7] = test system: FTH; experiment: FTH protein expression in cells (western blot); assay type: cell-based, human and murine; settings: HCT116, CTR and STS, hemin 20 μM 12 hours
# Procedure: Cells were washed twice in ice-cold PBS and lysates were prepared in RIPA lysis buffer (50 mM Tris HCl pH 7.4, 150 mM NaCl, 1% NP-40, 0.25% deoxycholic acid, 1 mM EDTA) supplemented with protease and phosphatase inhibitors (protease inhibitor cocktail set III EDTA-free, Calbiochem, Cat. #: S39134; PhosStop, Roche), Samples were sonicated (bioruptor plus, diogenode) and centrifuged at 16.1 g for 30 minutes at 4° C. Tumor tissues were collected and snap frozen in liquid nitrogen immediately after mice were sacrificed, and stored in -80° C. until use. […] Protein concentrations were determined by BCA assay (Thermo Fisher Scientific, Cat. #: 23225). Proteins were diluted in 1× Laemmli sample buffer, boiled at 95° C. for 5 minutes and 30 μg of total proteins were separated by using SDS-PAGE and analyzed by western blotting by standard procedures. […] Membranes were incubated overnight at 4° C. with gentle shaking with the following primary antibodies: […] ADI-SPA894), FTH (1:1000, Cell Signaling, Cat. #: 3998), AMPK (1:1000, Cell Signaling, Cat. #: 2532), phospho-[…] AMPK (1:1000, Cell Signaling, Cat. #: 2535), eIF2a (1:1000, Cell signaling, Cat. #: 5324), phospho […] eIF2a (1:1000, Cell signaling, Cat. #: 3597), AKT (1:1000, Cell Signaling, Cat. #: 9272), phospho-[…] […] Bands intensity was quantified with NIH Image J software (version 1.48v).
molecule,measurement,setting,value
"CC(=O)N(O)CCCCCNC(=O)CCC(=O)N(O)CCCCCNC(=O)CCC(=O)N(O)CCCCCN [DFO, desferrioxamine]",effect on vitamin C-induced cytotoxicity,"[1]; HCT116, STS, DFO 500 μM pre-treatment, cells washed before vitamin C 350 μM",rescued vitamin C-induced cell cytotoxicity
"N[C@@H](CCC(=O)N[C@@H](CS)C(=O)NCC(=O)O)C(=O)O [GSH, glutathione]",effect on cell death induction by STS and vitamin C cotreatment,[2],able to revert the massive cell death induction
same,effect on increase in ROS mediated by STS and STS+vitamin C,[3],fully reversed the increase in ROS
"CC(=O)N[C@@H](CS)C(=O)O [NAC, N-acetyl cysteine]",effect on cell death induction by STS and vitamin C cotreatment,[2],able to revert the massive cell death induction
"C=CC1=C(C)c2cc3[n-]c(cc4nc(cc5[n-]c(cc1n2)c(C)c5C=C)C(C)=C4CCC(=O)O)c(CCC(=O)O)c3C.[Zn+2] [ZnPP, zinc protoporphyrin]",susceptibility to vitamin C toxicity,"[2]; control medium, ZnPP 20 μM 3 hours before vitamin C 700 μM 24 hours",more susceptible to vitamin C toxicity
O=C1[O][Pt]2([NH][C@@H]3CCCC[C@H]3[NH]2)[O]C1=O [oxaliplatin],percentage of cell death,[4],increase the percentage of cell death
same,percentage of metabolically active cells (MTT),[5],significantly decrease the percentage of metabolically active cells
MnTMPyP,effect on cell death upon STS + vitamin C,"[1]; HCT116, STS, MnTMPyP 50 μM before vitamin C 350 μM 24 hours",inhibited cell death upon combinatorial treatment
apo-transferrin: iron-free transferrin,effect on STS + vitamin C cytotoxicity,[1],not
hemin,HO-1 protein expression level,[6],increases
same,effect on cancer cell death induced by vitamin C alone or with STS,"[2]; hemin 20 μM 3 hours before vitamin C 350 μM, CTR or STS",able to reverse cancer cell death
same,FTH protein expression level,[7],increases
holo-transferrin: Iron bound-transferrin,effect on STS + vitamin C cytotoxicity,[1],able to rescue the observed cytotoxicity; also recorded: reversed STS+vitamin C-mediated toxicity
"catalase: Catalase from bovine liver, membrane-impermeable ROS scavenger decomposing hydrogen peroxide (protein, UniProt P00432 2-527, looked up) Catalase: ADNRDPASDQMKHWKEQRAAQKPDVLTTGGGNPVGDKLNSLTVGPRGPLLVQDVVFTDEMAHFDRERIPERVVHAKGAGAFGYFEVTHDITRYSKAKVFEHIGKRTPIAVRFSTVAGESGSADTVRDPRGFAVKFYTEDGNWDLVGNNTPIFFIRDALLFPSFIHSQKRNPQTHLKDPDMVWDFWSLRPESLHQVSFLFSDRGIPDGHRHMNGYGSHTFKLVNANGEAVYCKFHYKTDQGIKNLSVEDAARLAHEDPDYGLRDLFNAIATGNYPSWTLYIQVMTFSEAEIFPFNPFDLTKVWPHGDYPLIPVGKLVLNRNPVNYFAEVEQLAFDPSNMPPGIEPSPDKMLQGRLFAYPDTHRHRLGPNYLQIPVNCPYRARVANYQRDGPMCMMDNQGGAPNYYPNSFSAPEHQPSALEHRTHFSGDVQRFNSANDDNVTQVRTFYLKVLNEEQRKRLCENIAGHLKDAQLFIQKKAVKNFSDVHPEYGSRIQALLDKYNEEKPKNAVHTYVQHGSHLSAREKANL",effect on STS-mediated sensitization to vitamin C,"[1]; HCT116, STS, catalase 50 U/ml prior to vitamin C 350 μM 24 hours",able to revert STS-mediated sensitization to vitamin C
